Columns and labels:
Type in all cases: in vivo, human
[1] = tested on: adult subjects with schizophrenia; assay: CGI Improvement score, Clinical Study One; conditions: 6 mg
Procedure: There were five treatment groups in this study. […] Study medication was administered once daily. After Baseline measurements were performed, the titration phase was begun. Bifeprunox treated subjects were titrated up to 5 mg, 10 mg or 20 mg according to a standardized titration schedule (Day 1: 0.125 mg, Day 2: 0.25 mg, Day 3: 0.5 mg, Day 4: 1.0 mg, Day 5: 2.0 mg, Day 6: 5.0 mg, Day 7: 10.0 mg, Day 8: 20 mg). When the assigned dose was reached, subjects were maintained at that dose for the remainder of the six-week treatment period.
The change in the Positive and Negative Symptom Scale (PANSS) total score, from baseline to endpoint, was the primary outcome measure. Secondary efficacy measures included: PANSS positive, PANSS negative, PANSS general psychopathology (GPP) score, PANSS-derived Brief Psychiatric Rating Scale (BPRS) score, Clinical Global Impressions-Severity of Illness (CGI-S), CGI-Improvement (CGI-I) scores, and responder rates. Safety and tolerability evaluations included extrapyramidal symptoms (EPS), weight gain, lipid profile, and serum prolactin.

[2] = Body weight, Clinical Study One; conditions: Risperidone 6 mg
Procedure: Statistical testing of the change from Baseline in weight was performed using similar methodology to that used for the secondary efficacy parameters (an ANCOVA model with factors for treatment and weight at Baseline). Pairwise comparisons of the bifeprunox treatment groups versus placebo were all statistically significant (bifeprunox 5 mg [p=0.025], bifeprunox 10 mg [p=0.009] and bifeprunox 20 mg [p=0.031] for the difference between bifeprunox and placebo mean change from Baseline in weight at Endpoint.

[3] = tested on: adult subjects with schizophrenia; assay: PANSS total score, Clinical Study Three (6-week, olanzapine-referenced); conditions: Olanzapine 15 mg, LOCF, ITT
Procedure: There were four treatment arms in this study, approximately 144 subjects per arm. […] After completing the Single-Blind Placebo Lead-in Period of at least three days, bifeprunox-treated subjects were titrated from 0.25 mg up to 20 mg/day or 30 mg/day according to a standardized titration scheme over a seven- or eight-day period, respectively. When the assigned dose was reached, subjects were maintained at that dose for the remainder of the six week treatment period. […] Subjects were hospitalized (if not already inpatients) after eligibility for study entry was verified, starting from the Screening Visit until at least 10 days after Baseline. Subjects could be hospitalized longer than 10 days if considered medically necessary by the Investigator. Rating scale assessments for efficacy and abnormal movement disorders were done weekly except for Week 5. Safety assessments were performed at Screening, during treatment and at the end of the study. Subject satisfaction with study medication was assessed at Week 6. Samples of whole blood were obtained at Weeks 2, 4, and 6 for determination of bifeprunox in plasma.
Test Product, Dose and Mode of Administration: Bifeprunox tablets, total daily dose 20 mg or 30 mg (one 20 mg tablet and one 10 mg tablet) administered orally using a once daily dosing regimen.

[4] = tested on: adult subjects with schizophrenia; assay: CGI Improvement score, Clinical Study Three; conditions: 15 mg, LOCF
Procedure: CLINICAL STUDY THREE: Table 29 below presents frequencies for the seven categories of CGI Improvement ratings by visit using LOCF for the ITT population. Statistical differences among treatment groups regarding the mean CGI Improvement score were evaluated using a CMH test stratified by pooled center applied to the frequencies of the seven CGI Improvement categories with modified ridit scores. […] The treatment comparison of the 30 mg bifeprunox group versus placebo group was not notable (p=0.162). No notable differences were observed between the placebo group and either of the two bifeprunox dose groups at any other time point during the study (Week 1 through Week 4).

## Cc1nc2n(c(=O)c1CCN1CCC(c3noc4cc(F)ccc34)CC1)CCCC2 [Risperidone, risperidone, reference compound]
[1]; Endpoint LOCF
  Actual Value of CGI Improvement Score, Mean (S.D.): 3.02 (1.21)
  Actual Value of CGI Improvement Score, Median: 3.0
[1]; Week 1, LOCF
  Actual Value of CGI Improvement Score, Mean (S.D.): 3.43 (0.97)
  Actual Value of CGI Improvement Score, Median: 3.0
[1]; Week 2, LOCF
  Actual Value of CGI Improvement Score, Median: 3.0
[1]; Week 3, LOCF
  Actual Value of CGI Improvement Score, Mean (S.D.): 2.97 (1.05)
  Actual Value of CGI Improvement Score, Median: 3.0
[1]; Week 4, LOCF
  Actual Value of CGI Improvement Score, Mean (S.D.): 3.05 (1.11)
  Actual Value of CGI Improvement Score, Median: 3.0
[2]
  mean weight change (increase): 4.8 lb
  subjects who decreased their weight by ≧7%: No subjects
  subjects who increased their weight by ≧7%: 13%

## Cc1cc2c(s1)Nc1ccccc1N=C2N1CCN(C)CC1 [Olanzapine, olanzapine, reference compound]
[3]; Week 1
  Change from Baseline in PANSS Total Score, Mean (SD): −9.3 (11.2)
  Change from Baseline in PANSS Total Score, Median: −6
[3]; Week 2
  Change from Baseline in PANSS Total Score, Mean (SD): −15.1 (13.6)
  Change from Baseline in PANSS Total Score, Median: −12
[3]; Week 3
  Change from Baseline in PANSS Total Score, Mean (SD): −19.3 (15.8)
  Change from Baseline in PANSS Total Score, Median: −18
[3]; Week 4
  Change from Baseline in PANSS Total Score, Mean (SD): −20.0 (16.5)
  Change from Baseline in PANSS Total Score, Median: −18
[3]; Week 6/Endpoint
  Change from Baseline in PANSS Total Score, Mean (SD): −22.0 (18.2)
  Change from Baseline in PANSS Total Score, Median: −21
[4]; Week 2
  CGI Improvement Minimally Improved, %: (45%)
  CGI Improvement Minimally Worse, %: (6%)
  CGI Improvement Much Improved, %: (27%)
  CGI Improvement Much Worse, %: (<1%)
  CGI Improvement No Change, %: (18%)
  CGI Improvement Very Much Improved, %: (4%)
[4]; Week 4
  CGI Improvement Minimally Improved, %: (29%)
  CGI Improvement Minimally Worse, %: (7%)
  CGI Improvement Much Improved, %: (36%)
  CGI Improvement Much Worse, %: (3%)
  CGI Improvement No Change, %: (17%)
  CGI Improvement Very Much Improved, %: (7%)
[4]; Week 6/Endpoint
  CGI Improvement Minimally Improved, %: (29%)
  CGI Improvement Minimally Worse, %: (7%)
  CGI Improvement Much Improved, %: (34%)
  CGI Improvement Much Worse, %: (3%)
  CGI Improvement No Change, %: (14%)
  CGI Improvement Very Much Improved, %: (12%)
